#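 These data come from cells grown in 96-well plates and exposed to compound for 48 hours at five concentrations. The concentration for full growth arrest is given as TGI.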
# Experiments:
# Assay in all cases: NCI tumour cell line growth inhibition, 48 h
# [1] = system: MDA-MB-231 breast
# [2] = system: NCI-H226 lung
# [3] = system: IGROV1 ovarian
# [4] = system: UO-31 renal
# [5] = system: MCF7 breast
# [6] = system: EKVX NSCLC
# [7] = system: COLO 205 colon
# [8] = system: HOP-92 NSCLC
# [9] = system: NCI-H460 lung
# [10] = system: HCC-2998 colon
# [11] = system: SK-OV-3 ovarian
# [12] = system: SNB-75 CNS
# [13] = system: U251 CNS
# [14] = system: OVCAR-5 ovarian
# [15] = system: MDA-MB-435
# [16] = system: RPMI-8226 leukemia
# [17] = system: HOP-62 NSCLC
# [18] = system: OVCAR-3 ovarian
# [19] = system: HT29 colon
# [20] = system: HCT-15 colon
# [21] = system: NCI-H522 lung
# [22] = system: CCRF-CEM leukemia
# [23] = system: SF-268 CNS
# [24] = system: A549 NSCLC
# [25] = system: PC-3 prostate
# [26] = system: HL-60(TB) leukemia
# [27] = system: SK-MEL-5 melanoma
# [28] = system: A498 renal
# [29] = system: SK-MEL-2 melanoma
# [30] = system: 786-0 renal
# [31] = system: SF-295 CNS
# [32] = system: NCI-H23 lung
# [33] = system: HS 578T breast
# [34] = system: SK-MEL-28 melanoma
# [35] = system: M14 melanoma
# [36] = system: OVCAR-8 ovarian
# [37] = system: MOLT-4 leukemia
# [38] = system: RXF 393 renal
# [39] = system: SNB-19 CNS
# [40] = system: KM12 colon
# [41] = system: LOX IMVI melanoma
# [42] = system: CAKI-1 renal
# [43] = system: UACC-62 melanoma
# [44] = system: NCI/ADR-RES ovarian
# [45] = system: T-47D breast
# [46] = system: SN12C renal
# [47] = system: OVCAR-4 ovarian
# [48] = system: BT-549 breast
# [49] = system: SW-620 colon
# [50] = system: K-562 leukemia
# [51] = system: MALME-3M melanoma
# [52] = system: UACC-257 melanoma
# [53] = system: MDA-N
# [54] = system: DU-145 prostate
# [55] = system: SF-539 CNS
# [56] = system: HCT-116 colon
# [57] = system: SR leukemia
# [58] = system: ACHN renal
# [59] = system: TK-10 renal
compound,measurement,setting,value
NC(=O)c1ccc(NCC2=CC(=O)C=CC2=O)cc1,TGI,[1],37.5 µM
same,TGI,[2],> 100 µM
same,TGI,[3],44.7 µM
same,TGI,[4],31.8 µM
same,TGI,[5],59.1 µM
same,TGI,[6],34.3 µM
same,TGI,[7],36.2 µM
same,TGI,[8],40.7 µM
same,TGI,[9],> 100 µM
same,TGI,[10],> 100 µM
same,TGI,[11],> 100 µM
same,TGI,[12],36.2 µM
same,TGI,[13],45.1 µM
same,TGI,[14],52.9 µM
same,TGI,[15],32.1 µM
same,TGI,[16],54.6 µM
same,TGI,[17],> 100 µM
same,TGI,[18],31 µM
same,TGI,[19],47.7 µM
same,TGI,[20],38.3 µM
same,TGI,[21],47.5 µM
same,TGI,[22],50.8 µM
same,TGI,[23],50.9 µM
same,TGI,[24],> 100 µM
same,TGI,[25],32.7 µM
same,TGI,[26],30.3 µM
same,TGI,[27],30.2 µM
same,TGI,[28],> 100 µM
same,TGI,[29],39.8 µM
same,TGI,[30],38.5 µM
same,TGI,[31],> 100 µM
same,TGI,[32],51.7 µM
same,TGI,[33],75.2 µM
same,TGI,[34],36.9 µM
same,TGI,[35],31.3 µM
same,TGI,[36],50.7 µM
same,TGI,[37],67.9 µM
same,TGI,[38],41 µM
same,TGI,[39],> 100 µM
same,TGI,[40],> 100 µM
same,TGI,[41],32.5 µM
same,TGI,[42],34.2 µM
same,TGI,[43],35.6 µM
same,TGI,[44],71.4 µM
same,TGI,[45],68.9 µM
same,TGI,[46],41.3 µM
same,TGI,[47],42.4 µM
same,TGI,[48],36.2 µM
same,TGI,[49],44 µM
same,TGI,[50],49.1 µM
same,TGI,[51],36.6 µM
same,TGI,[52],43.1 µM
same,TGI,[53],31.8 µM
same,TGI,[54],> 100 µM
same,TGI,[55],32.9 µM
same,TGI,[56],36.1 µM
same,TGI,[57],56.4 µM
same,TGI,[58],31.6 µM
same,TGI,[59],32.7 µM
NC(Cc1cnc(I)[nH]1)C(=O)O (stereo unspecified),TGI,[1],> 100 µM
same,TGI,[2],> 100 µM
same,TGI,[3],> 100 µM
same,TGI,[4],> 100 µM
same,TGI,[5],> 100 µM
same,TGI,[6],> 100 µM
same,TGI,[7],> 100 µM
same,TGI,[8],82.9 µM
same,TGI,[9],> 100 µM
same,TGI,[10],> 100 µM
same,TGI,[11],> 100 µM
same,TGI,[12],> 100 µM
same,TGI,[13],> 100 µM
same,TGI,[14],> 100 µM
same,TGI,[15],> 100 µM
same,TGI,[16],> 100 µM
same,TGI,[17],> 100 µM
same,TGI,[18],> 100 µM
same,TGI,[19],> 100 µM
same,TGI,[20],> 100 µM
same,TGI,[21],72.9 µM
same,TGI,[22],> 100 µM
same,TGI,[23],> 100 µM
same,TGI,[24],> 100 µM
same,TGI,[25],> 100 µM
same,TGI,[26],6.41 µM
same,TGI,[27],> 100 µM
same,TGI,[28],> 100 µM
same,TGI,[29],> 100 µM
same,TGI,[30],> 100 µM
same,TGI,[31],> 100 µM
same,TGI,[32],> 100 µM
same,TGI,[33],63.8 µM
same,TGI,[34],> 100 µM
same,TGI,[35],> 100 µM
same,TGI,[36],> 100 µM
same,TGI,[37],> 100 µM
same,TGI,[38],> 100 µM
same,TGI,[39],> 100 µM
same,TGI,[40],> 100 µM
same,TGI,[41],> 100 µM
same,TGI,[42],> 100 µM
same,TGI,[43],> 100 µM
same,TGI,[44],> 100 µM
same,TGI,[45],> 100 µM
same,TGI,[46],> 100 µM
same,TGI,[47],> 100 µM
same,TGI,[48],> 100 µM
same,TGI,[49],> 100 µM
same,TGI,[50],> 100 µM
same,TGI,[51],75.2 µM
same,TGI,[52],> 100 µM
same,TGI,[53],> 100 µM
same,TGI,[54],> 100 µM
same,TGI,[55],> 100 µM
same,TGI,[56],> 100 µM
same,TGI,[57],> 100 µM
same,TGI,[58],> 100 µM
same,TGI,[59],> 100 µM
CN(CCCN(C)Cc1ccc(Cl)c(Cl)c1)CCN1CCCC1,TGI,[1],37.3 µM
same,TGI,[2],55.6 µM
same,TGI,[3],> 62.8 µM
same,TGI,[4],10 µM
same,TGI,[5],43.6 µM
same,TGI,[6],> 100 µM
same,TGI,[7],33 µM
same,TGI,[8],> 28.3 µM
same,TGI,[9],70.5 µM
same,TGI,[10],11.8 µM
same,TGI,[11],> 100 µM
same,TGI,[12],81.7 µM
same,TGI,[13],47 µM
same,TGI,[14],> 86.3 µM
same,TGI,[15],11.7 µM
same,TGI,[16],17.5 µM
same,TGI,[17],98.2 µM
same,TGI,[18],> 100 µM
same,TGI,[19],32.2 µM
same,TGI,[20],> 88.4 µM
same,TGI,[21],37.1 µM
same,TGI,[22],24.6 µM
same,TGI,[23],> 93.5 µM
same,TGI,[24],> 80.9 µM
same,TGI,[25],> 100 µM
same,TGI,[26],> 100 µM
same,TGI,[27],19.5 µM
same,TGI,[28],28.2 µM
same,TGI,[29],26.4 µM
same,TGI,[30],31.6 µM
same,TGI,[31],53.9 µM
same,TGI,[32],> 100 µM
same,TGI,[33],> 53.6 µM
same,TGI,[34],4.6 µM
same,TGI,[35],15.7 µM
same,TGI,[36],> 100 µM
same,TGI,[37],37.1 µM
same,TGI,[38],67.9 µM
same,TGI,[39],> 100 µM
same,TGI,[40],> 100 µM
same,TGI,[41],41.2 µM
same,TGI,[42],> 93.5 µM
same,TGI,[43],3.67 µM
same,TGI,[44],> 100 µM
same,TGI,[45],> 80.6 µM
same,TGI,[46],> 100 µM
same,TGI,[47],> 100 µM
same,TGI,[48],> 100 µM
same,TGI,[49],> 100 µM
same,TGI,[50],15 µM
same,TGI,[51],30.9 µM
same,TGI,[52],7.18 µM
same,TGI,[53],15.8 µM
same,TGI,[54],> 100 µM
same,TGI,[55],45.1 µM
same,TGI,[56],> 54.2 µM
same,TGI,[57],31.9 µM
same,TGI,[58],> 100 µM
same,TGI,[59],> 82.7 µM
CCCCC(=O)Nc1ccc2cc(C(=O)OC)c(Cl)nc2n1,TGI,[1],> 100 µM
same,TGI,[2],> 100 µM
same,TGI,[3],> 100 µM
same,TGI,[4],57.7 µM
same,TGI,[5],> 100 µM
same,TGI,[6],> 100 µM
same,TGI,[7],> 45.3 µM
same,TGI,[8],> 100 µM
same,TGI,[9],> 100 µM
same,TGI,[10],52.7 µM
same,TGI,[11],> 100 µM
same,TGI,[12],> 100 µM
same,TGI,[13],> 78 µM
same,TGI,[14],> 100 µM
same,TGI,[15],> 100 µM
same,TGI,[16],> 100 µM
same,TGI,[17],20.6 µM
same,TGI,[18],17.6 µM
same,TGI,[19],> 100 µM
same,TGI,[20],> 100 µM
same,TGI,[21],> 100 µM
same,TGI,[22],> 100 µM
same,TGI,[23],> 100 µM
same,TGI,[24],> 100 µM
same,TGI,[25],> 74.3 µM
same,TGI,[26],6.81 µM
same,TGI,[27],> 100 µM
same,TGI,[28],> 100 µM
same,TGI,[29],> 100 µM
same,TGI,[30],> 100 µM
same,TGI,[31],> 96.7 µM
same,TGI,[32],> 100 µM
same,TGI,[33],46.9 µM
same,TGI,[34],> 100 µM
same,TGI,[35],> 100 µM
same,TGI,[36],> 100 µM
same,TGI,[37],> 100 µM
same,TGI,[38],> 100 µM
same,TGI,[39],38 µM
same,TGI,[40],10.1 µM
same,TGI,[41],> 100 µM
same,TGI,[42],> 100 µM
same,TGI,[43],> 100 µM
same,TGI,[44],> 100 µM
same,TGI,[45],> 72.5 µM
same,TGI,[46],> 100 µM
same,TGI,[47],> 100 µM
same,TGI,[48],> 100 µM
same,TGI,[49],> 100 µM
same,TGI,[50],> 100 µM
same,TGI,[51],> 100 µM
same,TGI,[52],> 100 µM
same,TGI,[53],> 100 µM
same,TGI,[54],10.1 µM
same,TGI,[55],> 100 µM
same,TGI,[56],> 100 µM
same,TGI,[57],> 100 µM
same,TGI,[58],> 100 µM
same,TGI,[59],> 100 µM

# From PubChem BioAssay (NCI)
